Here are results for 28 molecules from publication PMC10461229 (Journal of Medicinal Chemistry, 2023).

SMILES strings stand for the structures.

In the first assay the test system is wild-type (WT) Mtb Erdman. Briefly: microbe, parasite or virus in culture. It is filed as cell-based, Mycobacterium tuberculosis. The following applies: Mycobacterium tuberculosis, ERDMAN, read-out: MABA mean IC50 ± SD.
A word on the IC50: it is the point on the concentration scale where inhibition reaches its midpoint. For `O=C(O)C1CSc2c(C3CC3)c(CSc3nnc(-c4cccc5ccccc45)o3)cc(=O)n21` (racemic) [Compound 8a, (±) 8-Cyclopropyl-7-(((5-(naphthalen-1-yl)-1,3,4-oxadiazol-2-yl)thio)methyl)-5-oxo-2,3-dihydro-5H-thiazolo[3,2-a]pyridine-3-carboxylic Acid], the IC50 was determined as 12.6 ± 2.16 µM. Same read-out and setting: in the case of `O=C(O)C1CSc2c(C3CC3)c(CSc3nnc(Cc4cccc5ccccc45)o3)cc(=O)n21` (racemic) [Compound 8c, (±) 8-Cyclopropyl-7-(((5-(naphthalen-1-ylmethyl)-1,3,4-oxadiazol-2-yl)thio)methyl)-5-oxo-2,3-dihydro-5H-thiazolo[3,2-a]pyridine-3-carboxylic Acid] it was above 25 µM. Take `O=C(O)C1CSc2c(C3CC3)c(CSc3nnc(-c4ccc5ccccc5c4)o3)cc(=O)n21` (racemic) [Compound 8d, (±) 8-Cyclopropyl-7-(((5-(naphthalen-2-yl)-1,3,4-oxadiazol-2-yl)thio)methyl)-5-oxo-2,3-dihydro-5H-thiazolo[3,2-a]pyridine-3-carboxylic Acid]: the IC50 was 3.5 µM.

With `O=C(O)C1CSc2c(C3CC3)c(CSc3nnc(Cc4ccc5ccccc5c4)o3)cc(=O)n21` (racemic) [Compound 8e, (±) 8-Cyclopropyl-7-(((5-(naphthalen-2-ylmethyl)-1,3,4-oxadiazol-2-yl)thio)methyl)-5-oxo-2,3-dihydro-5H-thiazolo[3,2-a]pyridine-3-carboxylic Acid], the IC50 is above 25 µM. The same measure, in the same setting: in the case of `O=C(O)C1CSc2c(C3CC3)c(CSc3nnc(-c4ccc([N+](=O)[O-])cc4)o3)cc(=O)n21` (racemic) [Compound 8g, (±) 8-Cyclopropyl-7-(((5-(4-nitrophenyl)-1,3,4-oxadiazol-2-yl)thio)methyl)-5-oxo-2,3-dihydro-5H-thiazolo[3,2-a]pyridine-3-carboxylic Acid] it was above 25 µM; in that of `COc1cccc(-c2nnc(SCc3cc(=O)n4c(c3C3CC3)SCC4C(=O)O)o2)c1` (racemic) [Compound 8h, (±) 8-Cyclopropyl-7-(((5-(3-methoxyphenyl)-1,3,4-oxadiazol-2-yl)thio)methyl)-5-oxo-2,3-dihydro-5H-thiazolo[3,2-a]pyridine-3-carboxylic Acid], above 25 µM; in that of `O=C(O)C1CSc2c(C3CC3)c(CSc3nnc(-c4ccncc4)o3)cc(=O)n21` (racemic) [Compound 8i, (±) 8-Cyclopropyl-5-oxo-7-(((5-(pyridin-4-yl)-1,3,4-oxadiazol-2-yl)thio)methyl)-2,3-dihydro-5H-thiazolo[3,2-a]pyridine-3-carboxylic Acid], above 25 µM. Consider `O=C(O)C1CSc2c(C3CC3)c(CSc3nnc(-c4cccs4)o3)cc(=O)n21` (racemic) [Compound 8j, (±) 8-Cyclopropyl-5-oxo-7-(((5-(thiophen-2-yl)-1,3,4-oxadiazol-2-yl)thio)methyl)-2,3-dihydro-5H-thiazolo[3,2-a]pyridine-3-carboxylic Acid], for which the IC50 is above 25 µM. Same read-out and setting: in the case of `O=C(O)C1CSc2c(C3CC3)c(CSc3nnc(-c4ccco4)o3)cc(=O)n21` (racemic) [Compound 8k, (±) 8-Cyclopropyl-7-(((5-(furan-2-yl)-1,3,4-oxadiazol-2-yl)thio)methyl)-5-oxo-2,3-dihydro-5H-thiazolo[3,2-a]pyridine-3-carboxylic Acid] it was above 25 µM; in that of `O=C(O)C1CSc2c(C3CC3)c(CSc3nnc(COc4ccc(F)cc4)o3)cc(=O)n21` (racemic) [Compound 8l, (±) 8-Cyclopropyl-7-(((5-((4-fluorophenoxy)methyl)-1,3,4-oxadiazol-2-yl)thio)methyl)-5-oxo-2,3-dihydro-5H-thiazolo[3,2-a]pyridine-3-carboxylic Acid], above 25 µM; in that of `O=C(O)C1CSc2c(C3CC3)c(-c3nc4ccccc4[nH]3)cc(=O)n21` (racemic) [Compound 10, (±) 7-(1H-benzo[d]imidazole-2-yl)-8-cyclopropyl-5-oxo-2,3-dihydro-5H-thiazolo[3,2-a]pyridine-3-carboxylic Acid], above 25 µM.

On to `O=C(O)C1CSc2c(C3CC3)c(-c3nc4ccccc4o3)cc(=O)n21` (racemic) [Compound 13, (±) 7-(Benzo[d]oxazol-2-yl)-8-cyclopropyl-5-oxo-2,3-dihydro-5H-thiazolo[3,2-a]pyridine-3-carboxylic Acid], for which the IC50 was above 25 µM. For the molecule `O=C(O)C1CSc2c(C3CC3)c(-c3cn(-c4cccc5ccccc45)nn3)cc(=O)n21` (racemic) [Compound 15a, (±) 8-Cyclopropyl-7-(1-(naphthalen-1-yl)-1H-1,2,3-triazol-4-yl)-5-oxo-2,3-dihydro-5H-thiazolo[3,2-a]pyridine-3-carboxylic Acid], the IC50 is above 25 µM. On to `O=C(O)C1CSc2c(C3CC3)c(-c3cn(-c4cccc(C(F)(F)F)c4)nn3)cc(=O)n21` (racemic) [Compound 15b, (±) 8-Cyclopropyl-5-oxo-7-(1-(3-(trifluoromethyl)phenyl)-1H-1,2,3-triazol-4-yl)-2,3-dihydro-5H-thiazolo[3,2-a]pyridine-3-carboxylic Acid], for which the IC50 was above 25 µM. Turning to `O=C(O)C1CSc2c(C3CC3)c(-c3cn(-c4ccc5ccccc5c4)nn3)cc(=O)n21` (racemic) [Compound 15c, (±) 8-Cyclopropyl-7-(1-(naphthalen-2-yl)-1H-1,2,3-triazol-4-yl)-5-oxo-2,3-dihydro-5H-thiazolo[3,2-a]pyridine-3-carboxylic Acid], the IC50 came out at 7.37 ± 0.83 µM. Same read-out and setting: in the case of `O=C(O)C1CSc2c(C3CC3)c(-c3cc(-c4cccc5ccccc45)no3)cc(=O)n21` (racemic) [Compound 17a, (±) 8-Cyclopropyl-7-(3-(naphthalen-1-yl)isoxazol-5-yl)-5-oxo-2,3-dihydro-5H-thiazolo[3,2-a]pyridine-3-carboxylic Acid] it was 1.86 ± 1.13 µM; in that of `O=C(O)C1CSc2c(C3CC3)c(-c3cc(-c4cccc(C(F)(F)F)c4)no3)cc(=O)n21` (racemic) [Compound 17b, (±) 8-Cyclopropyl-5-oxo-7-(3-(3-(trifluoromethyl)phenyl)isoxazol-5-yl)-2,3-dihydro-5H-thiazolo[3,2-a]pyridine-3-carboxylic Acid], 3.04 ± 0.58 µM.

For `O=C(O)C1CSc2c(C3CC3)c(-c3cc(C4CC4)no3)cc(=O)n21` (racemic) [Compound 17c, (±) 8-Cyclopropyl-7-(3-cyclopropylisoxazol-5-yl)-5-oxo-2,3-dihydro-5H-thiazolo[3,2-a]pyridine-3-carboxylic Acid], the IC50 is above 25 µM. The same measure, in the same setting: in the case of `O=C(O)C1CSc2c(C3CC3)c(-c3cc(C4CCCCC4)no3)cc(=O)n21` (racemic) [Compound 17d, (±) 7-(3-Cyclohexylisoxazol-5-yl)-8-cyclopropyl-5-oxo-2,3-dihydro-5H-thiazolo[3,2-a]pyridine-3-carboxylic Acid] it was above 25 µM; in that of `COc1ccc(-c2cc(-c3cc(=O)n4c(c3C3CC3)SCC4C(=O)O)on2)cc1` (racemic) [Compound 17e, (±) 8-Cyclopropyl-7-(3-(4-methoxyphenyl)isoxazol-5-yl)-5-oxo-2,3-dihydro-5H-thiazolo[3,2-a]pyridine-3-carboxylic Acid], 2.62 ± 0.28 µM.

Regarding `O=C(O)C1CSc2c(C3CC3)c(-c3cc(-c4ccc([N+](=O)[O-])cc4)no3)cc(=O)n21` (racemic) [Compound 17f, (±) 8-Cyclopropyl-7-(3-(4-nitrophenyl)isoxazol-5-yl)-5-oxo-2,3-dihydro-5H-thiazolo[3,2-a]pyridine-3-carboxylic Acid], the IC50 was 9.27 ± 0.62 µM. Same read-out and setting: in the case of `O=C(O)C1CSc2c(C3CC3)c(-c3cc(-c4c5ccccc5cc5ccccc45)no3)cc(=O)n21` (racemic) [Compound 17i, (±) 7-(3-(Anthracen-9-yl)isoxazol-5-yl)-8-cyclopropyl-5-oxo-2,3-dihydro-5H-thiazolo[3,2-a]pyridine-3-carboxylic Acid] it was 1.56 ± 0.31 µM. The same measure, in the same setting: in the case of `CC(C)(C)c1cc(-c2cc(-c3cc(=O)n4c(c3C3CC3)SCC4C(=O)O)on2)cc(C(C)(C)C)c1` (racemic) [Compound 17k, (±) 8-Cyclopropyl-7-(3-(3,5-di-tert-butylphenyl)isoxazol-5-yl)-5-oxo-2,3-dihydro-5H-thiazolo[3,2-a]pyridine-3-carboxylic Acid] it was 3.13 ± 0.16 µM. For the molecule `O=C(O)C1CSc2c(C3CC3)c(-c3cc(-c4cc(F)cc(F)c4)no3)cc(=O)n21` (racemic) [Compound 17l, (±) 8-Cyclopropyl-7-(3-(3,5-difluorophenyl)isoxazol-5-yl)-5-oxo-2,3-dihydro-5H-thiazolo[3,2-a]pyridine-3-carboxylic Acid], the IC50 came out at 23.6 ± 1.51 µM.

For the molecule `O=C(O)C1CSc2c(C3CC3)c(-c3cc(-c4ccc(F)c5ccccc45)no3)cc(=O)n21` (racemic) [Compound 17m, (±) 8-Cyclopropyl-7-(3-(4-fluoronaphthalen-1-yl)isoxazol-5-yl)-5-oxo-2,3-dihydro-5H-thiazolo[3,2-a]pyridine-3-carboxylic Acid], the IC50 was 4 ± 0.67 µM.

Consider `O=C(O)C1CSc2c(C3CC3)c(-c3cc(-c4cccs4)no3)cc(=O)n21` (racemic) [Compound 17n, (±) 8-Cyclopropyl-5-oxo-7-(3-(thiophen-2-yl)isoxazol-5-yl)-2,3-dihydro-5H-thiazolo[3,2-a]pyridine-3-carboxylic Acid], for which the IC50 was above 25 µM. Consider `O=C(O)C1CSc2c(C3CC3)c(-c3cc(-c4ccc5c(c4)OCO5)no3)cc(=O)n21` (racemic) [Compound 17o, (±) 7-(3-(Benzo[d][1,3]dioxol-5-yl)isoxazol-5-yl)-8-cyclopropyl-5-oxo-2,3-dihydro-5H-thiazolo[3,2-a]pyridine-3-carboxylic Acid], for which the IC50 came out at 2.02 ± 0.46 µM. Still for that read-out and setting: in the case of `O=C(O)C1CSc2c(C3CC3)c(-c3cc(-c4ccnc5ccccc45)no3)cc(=O)n21` (racemic) [Compound 17p, (±) 8-Cyclopropyl-5-oxo-7-(3-(quinolin-4-yl)isoxazol-5-yl)-2,3-dihydro-5H-thiazolo[3,2-a]pyridine-3-carboxylic Acid] it was 11 ± 1.48 µM.

The assay is the same for the next values; noted with them: read-out: MABA mean IC50 ± SD.
Turning to `O=C(O)C1CSc2c(C3CC3)c(CSc3nnc(-c4ccc5ccccc5c4)o3)cc(=O)n21` (racemic) [Compound 8d, (±) 8-Cyclopropyl-7-(((5-(naphthalen-2-yl)-1,3,4-oxadiazol-2-yl)thio)methyl)-5-oxo-2,3-dihydro-5H-thiazolo[3,2-a]pyridine-3-carboxylic Acid], the IC50 was 3.53 ± 1.9 µM.
